Data set [1] in a line: Catalytic constant from Lineweaver-Burke analysis for antibody catalyzed retrograde aldol reaction with the compound. It counts as ADME.
Data set [2] can be described thus: Michaelis constant (Km) was determined. Format: ADME.

Molecules are shown by their SMILES.

Turning to `CC(=O)CC(O)/C=C/c1ccccc1` (configuration not stated), the k cat in data set [1] is 0.00145 s⁻¹. In data set [2], the Km amounted to 415 µM.

In data set [1], `CC(=O)CC(O)/C=C/c1ccc(Cl)cc1` (configuration not stated) showed a k cat of 0.00282 s⁻¹. Further, the Km in data set [2] worked out at 324 µM.

On to `COc1ccc(/C=C/C(O)CC(C)=O)cc1` (configuration not stated), for which the k cat in data set [1] stood at 0.0067 s⁻¹. Further, the Michaelis-Menten constant (Km) in data set [2] was determined as 522 µM.

In data set [1], `CC(=O)CC(O)/C=C/c1ccc(C(F)(F)F)cc1` (configuration not stated) registered a k cat of 0.00227 s⁻¹. Also, the Km in data set [2] was 239 µM.

In turn, `CC(=O)CC(O)/C=C/c1ccc([N+](=O)[O-])cc1` (configuration not stated) showed a k cat in data set [1] of 0.0013 s⁻¹. For the same compound, in data set [2], the Michaelis-Menten constant (Km) was determined as 140 µM.

With `CC(=O)CC(O)/C=C/c1ccc(N(C)C)cc1` (configuration not stated), the k cat in data set [1] was determined as 0.042 s⁻¹. In addition, the Km in data set [2] is 1250 µM.

By Km is commonly meant the substrate concentration at which the rate is half of its maximum.

Source of the values: ChEMBL document CHEMBL1131760, “Substrate-selective mechanisms in biocatalysis demonstrated with a versatile and efficient aldolase antibody” (Bioorg Med Chem Lett, 1999).
